Source: US6689803B2, “Compositions and methods for treating surgical adhesions” (Angiotech Pharmaceuticals, Inc., priority 1996, dated 2004)
Where two headings read alike, the source gives them in different places.

What was measured:
[1] = system: chick chorioallantoic membrane (CAM) vasculature
[2] = system: neutrophils; experiment: Superoxide anion generation by neutrophils; format: cell-based, human; details: 17 μM; CPPD crystals
Method: (§1) All experiments that studied neutrophil responses to crystals or zymosan in the presence of paclitaxel were performed using plasma opsonized CPPD or zymosan. Opsonization of crystals or zymosan was done with 50% heparinized plasma at a concentration of 75 mg of CPPD or 12 mg of zymosan per ml of 50% plasma Crystals or zymosan were incubated with plasma for 30 minutes at 37° C. and then washed in excess HBSS.
(§2) Neutrophil viability and purity was always greater than 90%.
Superoxide anion concentrations were measured using the superoxide dismutase inhibitable reduction of cytochrome C assay. Briefly, 25 mg of crystals or 0.5 mg of zymosan was placed in a 1.5 ml capped Eppendorf tube and warmed to 37° C. 0.5 ml of cells at 37° C. were added together with ferricytochrome C (final concentration 1.2 mg/ml) and the cells were activated by shaking the capped tubes. At appropriate times tubes were centrifuged at 10,000 g for 10 seconds and the supernatant collected for assay be measuring the absorbance of 550 nm. Control tubes were set up under the same conditions with the inclusion of superoxide dismutase at 600 units per ml.

[3] = system: aggrecan mRNA; experiment: Expression of proteoglycan (aggrecan) in chondrocytes; format: cell-based, calf; details: all concentrations evaluated (10^−7 M to 10^−4 M)
Method: Primary chondrocyte cultures were freshly isolated from calf cartilage. The cells were plated at 2.5×10^6 per ml in 100×20 mm culture dishes and incubated in Ham's F12 medium containing 5% FBS overnight at 37° C. The cells were starved in serum-free medium overnight and then treated with anti-microtubule agents at various concentrations (10^−7 M, 10^−6 M, 10^−5 M and 10^−4 M) for 6 hours. […] Total RNA was isolated by the acidified guanidine isothiocyanate method and subjected to electrophoresis on a denatured gel. […] The exposed films were scanned and quantitatively analyzed with ImageQuant.

[4] = system: collagenase (MMP-1) mRNA; experiment: IL-1 induced collagenase mRNA expression in chondrocytes (Northern blot); format: cell-based, calf; details: pre-incubation 6 hours, IL-1 20 ng/ml 18 hours
Method: Total RNA was isolated, and the MMP-1 mRNA levels were determined by Northern blot analysis. The blots were subsequently stripped and reprobed with ^32P-radiolabeled rat GAPDH cDNA, which was used as a housekeeping gene. The results shown are representative of four independent experiments. Quantitation of collagenase-1 and stromelysin-expression mRNA levels. The MMP-1 and MMP-3 expression levels were normalized with GAPDH.
Primary chondrocyte cultures were freshly isolated from calf cartilage. The cells were plated at 2.5×10^6 per ml in 100×20 mm culture dishes and incubated in Ham's F12 medium containing 5% FBS overnight at 37° C. […] IL-1 (20 ng/ml) was then added to each plate and the plates incubated for an additional 18 hours. Total RNA was isolated by the acidified guanidine isothiocyanate method and subjected to electrophoresis on a denatured gel. Denatured RNA samples (15 μg) were analyzed by gel electrophoresis in a 1% denatured gel, transferred to a nylon membrane and hydridized with the ^32P-labeled collagenase cDNA probe. ^32P-labeled glyceraldehyde phosphate […] (GAPDH) cDNA as an internal standard to ensure roughly equal loading. The exposed films were scanned and quantitatively analyzed with ImageQuant.

[5] = system: neutrophils; experiment: Neutrophil degranulation assay (myeloperoxidase, lysozyme release); format: cell-based, human; details: 17 μM; CPPD crystals
Method: as §2
One and a half milliliter Eppendorf tubes containing either 25 mg of CPPD or 1 mg of zymosan were preheated to 37° C. 0.5 ml of cells at 37° C. were added followed by vigorous shaking to initiate the reactions. At appropriate times, tubes were centrifuged at 10,000 g for 10 seconds and 0.4 ml of supernatant was stored at −20° C. for later assay.
Lysozyme was measured by the decrease in absorbance at 450 nm of a Micrococcus lysodeikticus suspension. Briefly, Micrococcus lysodeikticus was suspended at 0.1 mg/ml in 65 mM potassium phosphate buffer, pH 6.2 and the absorbance at 450 nm was adjusted to 0.7 units by dilution. The crystal (or zymosan) and cell supernatant (100 μl) was added to 2.5 ml of the Micrococcus suspension and the decrease in absorbance was monitored. Lysozyme standards (chicken egg white) in the 0 to 2000 units/ml range were prepared and a calibration graph of lysozyme concentration against the rate of decrease in the absorbance at 450 nm was obtained.
Myeloperoxidase (MPO) activity was measured by the increase in absorbance at 450 nm that accompanies the oxidation of dianisidine. 7.8 mg of dianisidine was dissolved in 100 ml of 0.1 M citrate buffer, pH 5.5 at […] by sonication. To a 1 ml cuvette, 0.89 ml of the dianisidine solution was added, followed by 50 μl of 1% Triton x 100, 10 μl of a 0.05% hydrogen peroxide in water solution and 50 μl of crystal-cell supernatant. MPO activity was determined from the change in absorbance (450 nm) per minute, Delta Å 450, using the following equation: […]

[6] = system: neutrophils; experiment: Neutrophil chemiluminescence assay (opsonized CPPD crystals or zymosan); format: cell-based, human
Method: as §1, §2
A stock solution of LY290181 at 100 μM in HBSS was freshly prepared.
All chemiluminescence studies were performed at a cell concentration of 5,000,000 cells/ml in HBSS with CPPD (50 mg/ml). In all experiments 0.5 ml of cells was added to 25 mg of CPPD or 0.5 mg of zymosan in 1.5 ml capped Eppendorf tubes. 10 μl of luminol dissolved in 25% DMSO in HBSS was added to a final concentration of 1 μM and the samples were mixed to initiate neutrophil activation by the crystals or zymosan. Chemiluminescence was monitored using an LKB Luminometer (Model 1250) at 37° C. for 20 minutes with shaking immediately prior to measurements to resuspend the crystals or zymosan. Control tubes contained cells, drug and luminol (crystals absent).

[7] = system: synoviocytes; experiment: Proliferation assay (MTT); format: cell-based; details: 24-hour exposure
Method: On day one, 5-10×10^4 synoviocytes were plated per well (96-well plate). Column #1 was kept free of cells (blank). On day 2, the plate was flicked to discard the medium and 200 μl of medium containing various concentrations of drug was added. […] There was no drug added to columns #1 and #2 (blank and untreated control, respectively). The medium containing the drug was discarded and 200 μl of fresh complete medium was added. The cells were then left to grow for an additional 3 to 4 days. On day five, 20 μl of dimethylthiazol diphenyltetrazolium bromide salt (MTT) (5 mg/ml PBS) was added and allowed to incubate for 4 hours at 37° C. The medium was decanted and 200 μl of DMSO was added.
The data were expressed as the % of survival which was obtained by dividing the number of cells remaining after treatment by the number of cells in the untreated control column #2 (the number of cells was obtained from a standard done prior to the assay).

[8] = system: collagen-induced arthritis; experiment: CIA rat model, intraperitoneal micellar paclitaxel; format: in vivo
Method: As a comparison with standard therapy, a third group received methotrexate at 0.3 mg/kg i.p. (human equivalent dose) on days 0, 5 and 10 post-arthritis onset. […] The control (group 5) and experimental animals were evaluated for disease severity both clinically and radiographically by individuals blinded to treatment groups.
The severity of inflammation for each limb was evaluated daily and scored based on standardized levels of swelling and periarticular erythema (0 being normal and 4 severe). Animals were evaluated radiographically on day 28 of the experiment. […] Histological assessment of the joints was completed at the conclusion of the experiment.

CCc1occc(=O)c1[O-].CCc1occc(=O)c1[O-].[O-2].[V+4] [BEOV]
Inhibition/n ([1]; PCL paste (3 mg), 10%): too toxic

Cc1occc(=O)c1[O-].Cc1occc(=O)c1[O-].[O]=[V+2] [BMOV]
Inhibition/n ([1]; PCL paste (3 mg), 10%): too toxic | Inhibition/n ([1]; PCL paste (3 mg), 25%): too toxic | Inhibition/n ([1]; PCL paste (3 mg), 35%): too toxic

N#CC1=C(N)Oc2c(ccc3ccccc23)C1c1cccnc1 (stereo not shown) [LY290181, 2-amino-4-(3-pyridyl)-4H-naphtho(1,2-b)pyran-3-cardonitrile]
superoxide anion production [2]: decrease in the amount of superoxide generated | expression of aggrecan [3]: did not affect the expression of aggrecan | prevented IL-1-induced collagenase expression at concentrations as low as [4]: 100 nM | lysozyme release [5]: decreased both lysozyme and myeloperoxidase release | myeloperoxidase release [5]: decreased both lysozyme and myeloperoxidase release | inhibition of plasma opsonized zymosan-induced neutrophil chemiluminescence ([6]; 0.5 to 50 μM): strong inhibition | IC50 [7]: < 5 nM | Inhibition/n ([1]; PCL paste (3 mg), 1%): did not induce an anti-angiogenesis response | Inhibition/n ([1]; PCL paste (3 mg), 5%): ⅓

COC(=O)/C=C/c1cc(O)ccc1O [MDHC]
Inhibition/n ([1]; PCL paste (3 mg), 20%): 0/8

[2H]O[2H] [deuterium oxide]
expression of aggrecan [3]: did not affect the expression of aggrecan | prevented IL-1-induced collagenase expression at concentrations as low as [4]: 100 nM

C/C(=C\c1csc(C)n1)[C@@H]1C[C@@H]2O[C@]2(C)CCC[C@H](C)[C@H](O)[C@@H](C)C(=O)C(C)(C)[C@@H](O)CC(=O)O1 [epothilone B]
expression of aggrecan [3]: did not affect the expression of aggrecan | prevented IL-1-induced collagenase expression at concentrations as low as [4]: 100 nM | IC50 [7]: ~45 nM

CCOC(=O)CN [glycine ethyl ester]
expression of aggrecan [3]: did not affect the expression of aggrecan | prevented IL-1-induced collagenase expression at concentrations as low as [4]: 100 nM | inhibition of plasma opsonized zymosan-induced neutrophil chemiluminescence ([6]; 0.5 to 20 mM): strong inhibition

CC(O)CC(C)(C)O (stereo not shown) [hexylene glycol, 2-methyl-2,4-pentanediol]
expression of aggrecan [3]: did not affect the expression of aggrecan | prevented IL-1-induced collagenase expression at concentrations as low as [4]: 100 nM

O=C(O)c1cc(NCc2cc(O)ccc2O)ccc1O [lavendustine-c]
Inhibition/n ([1]; PCL paste (3 mg), 10%): 0/14 | Inhibition/n ([1]; PCL paste (3 mg), 20%): 0/10

CN(Cc1cnc2nc(N)nc(N)c2n1)c1ccc(C(=O)N[C@@H](CCC(=O)O)C(=O)O)cc1 [methotrexate]
Percentage of Animals with Erosions ([8]; 0.3 mg/kg): 76% | Radiographic Score ([8]; 0.3 mg/kg): 4.25 ± 0.64 | Antibody to Collagenase II ([8]; 0.3 mg/kg i.p.): 0.182 ± 0.0034 | Arthritic Index on Day 10 ([8]; 0.3 mg/kg i.p.): 5.4 ± 0.6 | Maximum Mean Arthritis Score ([8]; 0.3 mg/kg i.p.): 5.7 ± 0.6

[O]=[V]([O-])([O-])[O-] [vanadate]
Inhibition/n ([1]; in vivo): 0/5

O=S(=O)([O-])[O-].[O]=[V+2] [vanadyl sulphate]
Inhibition/n ([1]; in vivo): 0/3

CC[C@]1(O)C[C@H]2CN(CCc3c([nH]c4ccccc34)[C@@](C(=O)OC)(c3cc4c(cc3OC)N(C=O)[C@H]3[C@@](O)(C(=O)OC)[C@H](OC(C)=O)[C@]5(CC)C=CCN6CC[C@]43[C@@H]65)C2)C1 [vincristine]
Inhibition/n ([1]; PCL paste (3 mg), 1%): too toxic | Inhibition/n ([1]; PCL paste (3 mg), 2%): too toxic | toxicity to the embryo ([1]; PCL paste, concentrations exceeding 2%): unexpected embryonic death occurred | Inhibition/n ([1]; methylcellulose (10 ul), 1 ug): too toxic | Inhibition/n ([1]; methylcellulose (10 ul), 9 ug): too toxic

aluminum fluoride
expression of aggrecan [3]: did not affect the expression of aggrecan | prevented IL-1-induced collagenase expression at concentrations as low as [4]: 100 nM | inhibition of plasma opsonized zymosan-induced neutrophil chemiluminescence ([6]; 5 to 100 mM): strong inhibition | IC50 [7]: ~32000 nM

baccatin
Inhibition/n ([1]; methylcellulose (5 ul), 5 ug): 4/7 | Inhibition/n ([1]; paste (2 mg), 2 ug): 2/3

ethylene glycol bis-(succinimidylsuccinate)
expression of aggrecan [3]: did not affect the expression of aggrecan | prevented IL-1-induced collagenase expression at concentrations as low as [4]: 100 nM

herbimysin
Inhibition/n ([1]; PCL paste (3 mg), 2%): 3/4 | Inhibition/n ([1]; in vivo): 1/1

protamine sulphate
Inhibition/n ([1]; methylcellulose (10 ul), 100 ul ^): 1/10
